Target: IDO1 (Homo sapiens, UniProt P14902)
Test: IDO1 Cellular Assay in HeLa Cells Stimulated with IFNγ
Assay type: cell-based
Conditions: read-out: HeLa Cell Potency, IC50
Description: IDO1 Cellular Assay in HeLa Cells Stimulated with IFNγ
HeLa cells were cultured in complete HeLa culture medium (90% EMEM, 10% heat-inactivated fetal bovine serum) and expanded to about 1×10^9 cells. The cells were then collected and frozen down at 1×10^7 cells/vial in 1 mL frozen medium (90% complete HeLa culture medium, 10% DMSO).
Compounds to be tested were serially diluted in ten 3-fold steps in DMSO starting from 10 mM DMSO stocks in Echo low volume plate(s). Compound dilutions or DMSO alone were then dispensed from the dilution plate(s) into Greiner black 384-well assay plate(s) (catalog #781086, 50 nL/well) using an Echo 550 acoustic liquid handler (Labcyte).
Frozen HeLa cells were thawed and transferred into HeLa assay medium (99% complete HeLa culture medium, 1% Pen/Strep) with 20 mL medium/vial of cells. The cells were spun down at 250 g in a table top centrifuge for 5 min and suspended in same volume of HeLa assay medium. The cells were then counted and adjusted to a density of 2×10^5 cells/mL in HeLa assay medium. Sterile L-tryptophan were added to the cells with final concentration of 300 uM L-tryptophan. A small aliquot (2 mL/plate) of HeLa cells were set aside and were not treated with IFNγ, to serve as the Max-E control.
HeLa cells with and without IFNγ were dispensed to the respective wells of 384-well assay plates containing the compounds. The plates were incubated for about 48 hours at a 37° C., 5% CO2 incubator. Afterwards, 12 μL of 0.5 M methyl isonipecotate in dimethyl sulfoxide were added into each well and the plates were sealed and incubated at 37° C. without CO2 overnight. The plates were centrifuged for 1 min at 200×g. The resulting fluorescence was measured in a Spectramax plate reader (Molecular Devices) with a 400 nm excitation filter and a 510 nm emission filter.
The fluorescence intensity of each well was corrected for the background observed in wells with non-IFNγ-treated cells and was expressed as a fraction of the intensity observed in wells of IFNγ-treated cells and DMSO only. Potencies were calculated by linear least squares fit to the four parameter logistic IC50 equation.

IDO1, sequence (P14902 whole entry): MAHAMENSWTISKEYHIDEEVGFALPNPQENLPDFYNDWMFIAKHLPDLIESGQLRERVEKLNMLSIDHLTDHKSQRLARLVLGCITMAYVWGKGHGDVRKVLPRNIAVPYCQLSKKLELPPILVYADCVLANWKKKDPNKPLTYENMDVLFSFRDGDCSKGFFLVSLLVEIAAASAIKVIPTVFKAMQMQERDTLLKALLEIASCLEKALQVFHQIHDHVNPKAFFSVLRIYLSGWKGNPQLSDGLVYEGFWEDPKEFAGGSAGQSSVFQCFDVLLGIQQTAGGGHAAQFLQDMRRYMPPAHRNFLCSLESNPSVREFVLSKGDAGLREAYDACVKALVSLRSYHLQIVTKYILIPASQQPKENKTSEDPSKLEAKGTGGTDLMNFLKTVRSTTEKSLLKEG

Compound “1-(2-(difluoromethyl)-4-(2,3-dimethylphenyl)piperazin-1-yl)-2-((3bR,4aR)-3-(4-hydroxypiperidine-1-carbonyl)-3b,4,4a,5-tetrahydro-1H-cyclopropa[3,4]cyclopenta[1,2-c]pyrazol-1-yl)ethanone [Example 387]” has an IC50 of 0.205 µM.
Compound `Cc1cccc(N2CCN(C(=O)Cn3nc(C(=O)N4CC[C@H](O)[C@H](F)C4)c4c3CCC4C(F)F)CC2)c1C` (mixture of isomers) [Example 19, 2-[rac-4-(difluoromethyl)-3-[(3R,4S)-3-fluoro-4-hydroxy-piperidine-1-carbonyl]-5,6-dihydro-4H-cyclopenta[c]pyrazol-1-yl]-1-[4-(2,3-dimethylphenyl)piperazin-1-yl]ethanone] has an IC50 of 0.113 µM.
`Cc1cccc(N2CCN(C(=O)Cn3nc(C(=O)N4CC[C@@H](O)[C@@H](F)C4)c4c3CC(F)C4)CC2)c1C` (mixture of isomers) [Example 417, 1-(4-(2,3-dimethylphenyl)piperazin-1-yl)-2-(5-fluoro-3-((3S,4R)-3-fluoro-4-hydroxypiperidine-1-carbonyl)-5,6-dihydrocyclopenta[c]pyrazol-1(4H)-yl)ethan-1-one] gave an IC50 of 0.027 µM.
`Cc1cccc(N2CCN(C(=O)Cn3nc(C(=O)N4CC[C@@H](O)[C@@H](F)C4)c4c3C(O)CC4)CC2)c1C` (mixture of isomers) [Example 421, 1-(4-(2,3-dimethylphenyl)piperazin-1-yl)-2-(3-((3S,4R)-3-fluoro-4-hydroxypiperidine-1-carbonyl)-6-hydroxy-5,6-dihydrocyclopenta[c]pyrazol-1(4H)-yl)ethanone] was tested, and the IC50 was 0.692 µM.
`O=C(Cn1nc(C(=O)N2CC[C@H](O)[C@H](F)C2)c2c1CCC2)N1CCN(C2CCc3ccccc32)CC1` (mixture of isomers) [Example 438, 1-(4-(2,3-dihydro-1H-inden-1-yl)piperazin-1-yl)-2-(3-((3R,4S)-3-fluoro-4-hydroxypiperidine-1-carbonyl)-5,6-dihydrocyclopenta[c]pyrazol-1(4H)-yl)ethanone] was tested, and the IC50 was 1.59 µM.
Work on `Cc1cccc(N2CCN(C(=O)Cn3nc(C(=O)N4CCC(O)CC4)c4c3CCC4C(F)F)CC2)c1C` (racemic) [Example 18, 2-[rac-4-(difluoromethyl)-3-(4-hydroxypiperidine-1-carbonyl)-5,6-dihydro-4H-cyclopenta[c]pyrazol-1-yl]-1-[4-(2,3-dimethylphenyl)piperazin-1-yl]ethanone] yielded an IC50 of 0.0924 µM.
With `Cc1cccc(N2CCN(C(=O)Cn3nc(C(=O)N4CC[C@H](F)[C@@H](O)C4)c4c3CCC4)CC2)c1C` (racemic) [Example 208, 1-[4-(2,3-dimethylphenyl)piperazin-1-yl]-2-[3-[rac-(3S,4S)-4-fluoro-3-hydroxy-piperidine-1-carbony]-5,6-dihydro-4H-cyclopenta[c]pyrazol-1-yl]ethanone] the IC50 was 0.0309 µM.
Work on `Cc1cccc(N2CCN(C(=O)Cn3nc(C(=O)N4CC[C@H](O)[C@H](F)C4)c4c3C[C@H]3C[C@@H]43)[C@H]3CCC[C@@H]32)c1C` (racemic) [Example 327, 1-[rac-(4aS,7aS or 4aR,7aR)-1-(2,3-dimethylphenyl)-3,4a,5,6,7,7a-hexahydro-2H-cyclopenta[b]pyrazin-4-yl]-2-[(2R,4R)-9-[(3R,4S)-3-fluoro-4-hydroxy-piperidine-1-carbonyl]-7,8-diazatricyclo[4.3.0.02,4]nona-1(6),8-dien-7-yl]ethanone] yielded an IC50 of 0.0171 µM.
Work on `Cc1cccc(N2CCN(C(=O)Cn3nc(C(=O)N4CC[C@H](O)[C@@H](F)C4)c4c3CC(O)C4)CC2)c1C` (mixture of isomers) [Example 414, 1-(4-(2,3-dimethylphenyl)piperazin-1-yl)-2-(3-((3 S,4S)-3-fluoro-4-hydroxypiperidine-1-carbonyl)-5-hydroxy-5,6-dihydrocyclopenta[c]pyrazol-1 (4H)-yl)ethanone] yielded an IC50 of 0.381 µM.
In the case of `Cc1cccc(N2CCN(C(=O)Cn3nc(C(=O)N4CC[C@H](O)[C@H](F)C4)c4c3CC(C(F)F)C4)CC2)c1C` (single isomer, unassigned) [Example 12], the IC50 is reported as 0.0132 µM.
Compound `Cc1cccc(N2CCN(C(=O)Cn3nc(C(=O)N4CCC(OCCO)CC4)c4c3CCC4C(F)F)CC2)c1C` (single isomer, unassigned) [Example 13, 2-[4-(difluoromethyl)-3-[4-(2-hydroxyethoxy)piperidine-1-carbonyl]-5,6-dihydro-4H-cyclopenta[c]pyrazol-1-yl]-1-[4-(2,3-dimethylphenyl)piperazin-1-yl]ethanone] has an IC50 of 0.031 µM.
For `Cc1cccc(N2CCN(C(=O)Cn3nc(C(=O)N4CC[C@H](O)[C@H](F)C4)c4c3CCC4C(F)F)CC2)c1C` (single isomer, unassigned) [Example 14], the IC50 was 0.0438 µM.
Compound `Cc1cccc(N2CCN(C(=O)Cn3nc(C(=O)N4CCC(O)CC4)c4c3CCC4C(F)F)CC2)c1C` (single isomer, unassigned) [Example 15, 2-[4-(difluoromethyl)-3-(4-hydroxypiperidine-1-carbonyl)-5,6-dihydro-4H-cyclopenta[c]pyrazol-1-yl]-1-[4-(2,3-dimethylphenyl)piperazin-1-yl]ethanone] has an IC50 of 0.0199 µM.
Work on `Cc1cccc(N2CCN(C(=O)Cn3nc(C(=O)N4CC[C@H](O)[C@H](F)C4)c4c3C(O)CCC4)CC2)c1C` (single isomer, unassigned) [Example 25] yielded an IC50 of 0.496 µM.
`Cc1cccc(N2CCN(C(=O)Cn3nc(C(=O)N4CC[C@@H](N)C(F)(F)C4)c4c3CCC4)CC2)c1C` (single isomer, unassigned) [Example 206, [(4R or 4S)-1-[1-[2-[4-(2,3-dimethylphenyl)piperazin-1-yl]-2-oxo-ethyl]-5,6-dihydro-4H-cyclopenta[c]pyrazole-3-carbonyl]-3,3-difluoro-4-piperidyl]ammonium;2,2,2-trifluoroacetate] gave an IC50 of 0.0279 µM.
`Cc1cccc(N2CCN(C(=O)Cn3nc(C(=O)N4CC[C@H](N)C(F)(F)C4)c4c3CCC4)CC2)c1C` (single isomer, unassigned) [Example 209, [(4S or 4R)-1-[1-[2-[4-(2,3-dimethylphenyl)piperazin-1-yl]-2-oxo-ethyl]-5,6-dihydro-4H-cyclopenta[c]pyrazole-3-carbonyl]-3,3-difluoro-4-piperidyl]ammonium;2,2,2-trifluoroactate] was tested, and the IC50 was 0.0367 µM.
Work on `Cc1cccc(N2CCN(C(=O)Cn3nc(C(=O)N4CCC(F)(F)[C@H](O)C4)c4c3CCC4)CC2)c1C` (single isomer, unassigned) [Example 210, 2-[3-[(3R or 3S)-4,4-difluoro-3-hydroxy-piperidine-1-carbonyl]-5,6-dihydro-4H-cyclopenta[c]pyrazol-1-yl]-1-[4-(2,3-dimethylphenyl)piperazin-1-yl]ethanone] yielded an IC50 of 0.0635 µM.
With `Cc1cccc(N2CCN(C(=O)Cn3nc(C(=O)N4CCC(F)(F)[C@@H](O)C4)c4c3CCC4)CC2)c1C` (single isomer, unassigned) [Example 213, 2-[3-[(3S or 3R)-4,4-difluoro-3-hydroxy-piperidine-1-carbonyl]-5,6-dihydro-4H-cyclopenta[c]pyrazol-1-yl]-1-[4-(2,3-dimethylphenyl)piperazin-1-yl]ethanone] the IC50 was 0.0909 µM.
Compound `Cc1cccc(N2CCN(C(=O)Cn3nc(C(=O)N4CCC(O)CC4)c4c3C[C@H]3C[C@@H]43)C(C(F)F)C2)c1C` (single isomer, unassigned) [Example 386] has an IC50 of 0.014 µM.
`Cc1cccc(N2CCN(C(=O)Cn3nc(C(=O)N4CC[C@H](O)[C@@H](F)C4)c4c3CC(O)C4)CC2)c1C` (single isomer, unassigned) [Example 415] showed an IC50 of 0.341 µM.
For `Cc1cccc(N2CCN(C(=O)Cn3nc(C(=O)N4CC[C@H](O)[C@@H](F)C4)c4c3CC(O)C4)CC2)c1C` (single isomer, unassigned) [Example 416], the IC50 was 0.0757 µM.
`Cc1cccc(N2CCN(C(=O)Cn3nc(C(=O)N4CC[C@@H](O)[C@@H](F)C4)c4c3C(O)CC4)CC2)c1C` (single isomer, unassigned) [Example 422] was tested, and the IC50 was 2.95 µM.
Compound `Cc1cccc(N2CCN(C(=O)Cn3nc(C(=O)N4CC[C@@H](O)[C@@H](F)C4)c4c3C(O)CC4)CC2)c1C` (single isomer, unassigned) [Example 423] has an IC50 of 0.195 µM.
For `O=C(Cn1nc(C(=O)N2CC[C@H](O)[C@H](F)C2)c2c1CCC2)N1CCN(C2CCCc3ccccc32)CC1` (single isomer, unassigned) [Example 426], the IC50 was 0.302 µM.
`O=C(Cn1nc(C(=O)N2CC[C@H](O)[C@H](F)C2)c2c1CCC2)N1CCN(C2CCCc3ccccc32)CC1` (single isomer, unassigned) [Example 427] was tested, and the IC50 was over 10 µM.
Compound `O=C(Cn1nc(C(=O)N2CCC(O)CC2)c2c1CCC2)N1CCN(C2CCCc3ccccc32)CC1` (single isomer, unassigned) [Example 429] has an IC50 of 0.183 µM.
`O=C(Cn1nc(C(=O)N2CCC(O)CC2)c2c1CCC2)N1CCN(C2CCCc3ccccc32)CC1` (single isomer, unassigned) [Example 430] showed an IC50 of 0.184 µM.
With `O=C(Cn1nc(C(=O)N2CCC(O)CC2)c2c1CCC2)N1CCN(C2CCCc3ccccc32)CC1` (single isomer, unassigned) [Example 431] the IC50 was 3.44 µM.

From patent US12264134B2 (Merck Sharp & Dohme LLC, priority 2018, dated 2025)
